Reference: BindingDB's records for doi:10.1016/j.bmcl.2005.06.091 (Schering-Plough Research Institute, 2005)
Numbered stars: 1 amine (or outer) side, 2 acyl side, 3 side chain; on linkers, the order of the positions; unused ones are H or OH. Square brackets hold non-standard residues; d marks the D form. Peptide text beside a SMILES is read from it. * marks the point of attachment. Isobutyloxycarbonyl = CC(C)COC(=O)*; X1 = CCCC(N[*:1])C(=O)C(=O)[*:2]

Target: Genome polyprotein (Hepatitis C virus genotype 1a (isolate H77), UniProt P27958)
Sequence (P27958 1027-1657 limits assumed): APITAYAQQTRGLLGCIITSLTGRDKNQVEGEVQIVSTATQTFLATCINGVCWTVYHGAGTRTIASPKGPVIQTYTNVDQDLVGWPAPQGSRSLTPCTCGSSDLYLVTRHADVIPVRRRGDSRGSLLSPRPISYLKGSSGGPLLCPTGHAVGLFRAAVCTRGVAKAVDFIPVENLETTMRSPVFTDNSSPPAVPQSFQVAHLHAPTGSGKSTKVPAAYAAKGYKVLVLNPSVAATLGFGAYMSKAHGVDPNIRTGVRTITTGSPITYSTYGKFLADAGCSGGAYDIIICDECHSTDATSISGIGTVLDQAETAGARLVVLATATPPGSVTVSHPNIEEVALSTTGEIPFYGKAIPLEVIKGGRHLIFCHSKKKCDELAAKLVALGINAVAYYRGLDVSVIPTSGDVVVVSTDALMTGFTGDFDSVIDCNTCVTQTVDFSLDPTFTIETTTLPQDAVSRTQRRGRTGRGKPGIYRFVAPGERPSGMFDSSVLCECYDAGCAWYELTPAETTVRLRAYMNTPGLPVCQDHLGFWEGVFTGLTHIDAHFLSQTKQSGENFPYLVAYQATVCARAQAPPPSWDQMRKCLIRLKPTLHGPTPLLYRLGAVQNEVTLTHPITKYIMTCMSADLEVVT
Test: Continuous Spectrophotometric Assay
Conditions: pH 6.5; 30 °C
Protocol: Proteolytic cleavage of the ester linkage between the Nva (L-norvaline) and the chromophore (PAP) was monitored for change in absorbance at 370 nm. Initial velocities were determined using linear regression and kinetic constants were obtained by fitting the data to the Michaelis-Menten equation.

Row | SMILES | Ki
1 | CCCC(NC(=O)[C@@H]1CCCN1C(=O)[C@@H](NC(=O)OCC(C)C)C(C)C)C(=O)C(=O)NCC(=O)N[C@@H](CCC(=O)O)C(=O)O (stereo partly drawn) [1,5-dilithio (2S)-2-[2-(3-{[(2S)-1-[(2S)-3-methyl-2-{[(2-methylpropoxy)carbonyl]amino}butanoyl]pyrrolidin-2-yl]formamido}-2-oxohexanamido)acetamido]pentanedioate] (Isobutyloxycarbonyl-VP[X1]GE-OH) | > 100 µM
2 | CCCC(NC(=O)[C@@H]1CCCN1C(=O)[C@@H](NC(=O)OCC(C)C)C(C)C)C(=O)C(=O)NCC(=O)N[C@@H](CC(=O)O)C(=O)O (stereo partly drawn) [1,4-disodium (2S)-2-[2-(3-{[(2S)-1-[(2S)-3-methyl-2-{[(2-methylpropoxy)carbonyl]amino}butanoyl]pyrrolidin-2-yl]formamido}-2-oxohexanamido)acetamido]butanedioate] (Isobutyloxycarbonyl-VP[X1]GD-OH) | > 100 µM
